Row | Structure (SMILES) | melting point
1 | COc1ccc(S(=O)(=O)N(CC(C)C)CC(O)C(Cc2ccccc2)NC(=O)C(C)CS(C)(=O)=O)cc1OC (stereo not given) | 130 to 133 °C
2 | COc1ccc(-c2cnc3[nH]cc(C(=O)C(C)(C)C)c3n2)cc1 | 207 to 208 °C
3 | COC(=O)NNC(=O)Nc1cc(Cl)cc(Cl)c1 | 246 °C
4 | CC[C@H]1CN(c2ccc3c(=O)c(C(=O)O)cn([C@@H]4C[C@@H]4F)c3c2C)C[C@H]1N | 232 to 234 °C
5 | CCOc1cc2ncnc(N3CCN(C(=O)Nc4ccc([N+](=O)[O-])cc4)CC3)c2cc1OCC | 120 to 121 °C
6 | CNc1cc(NS(=O)(=O)c2ccc(C(C)(C)C)cc2)nc(NC)n1 | 316 to 318 °C
7 | O=C1c2ccccc2N(N2CCCCCC2)C2=NCCN12 | 206 to 208 °C
8 | O=C(O)c1ccc(NC(=O)C(CS)Cc2ccccc2)cc1O (stereo not given) | 166 to 170 °C
9 | CCn1cc(C(=O)O)c(=O)c2cc(F)c(N3CCN(c4ccccc4OC)CC3)c(OC(F)F)c21 | 219 to 222 °C
10 | COc1cc(Oc2cccc(C(F)(F)F)c2)nc(C(=O)NN=C(C)c2ccccc2)c1 | 181 to 182 °C
11 | Cn1cc(-c2ccccc2)c(=O)c(-c2ccccc2C(F)(F)F)c1 | 168 to 171 °C
12 | NC(=O)Nc1ccc2c(c1)N1CCCN=C1S2 | 246 °C
13 | Nc1nccnc1C(=O)Nc1ccccc1Cl | 177 to 179 °C
14 | Cc1cc(CCCOc2c(Cl)cc(C(=O)O)cc2Cl)on1 | 156 to 157 °C
15 | O=C(NC(CCl)CCOc1ccc(Br)cc1)c1c(F)cccc1F (stereo not given) | 116 to 119 °C
16 | CCNC(=O)NCCCNn1c(COCC)nc2c(N)nc3ccccc3c21 | 138 to 141 °C
17 | COC(=O)CC1NC(=O)c2ccccc21 (stereo not given) | 136 to 138 °C
18 | CC(=O)Oc1c(C(C)C)cc(C(=O)Nc2cnc3c(C)cc(C)cc3c2-c2ccccc2Cl)cc1C(C)C | 195 to 196 °C
19 | Fc1ccc(-c2cc3cccc(Cl)n3n2)cc1 | 156 to 157 °C
20 | CCC(=O)c1[nH]c2cc(Cl)ccc2c1NC(C)=O | > 270 °C
21 | O=C(O)CCCCc1cc2cc(Cl)ccc2n1S(=O)(=O)c1ccccc1 | 144 to 148 °C
22 | FC(F)Sc1ccc(-c2ccc(Cl)cc2)[nH]1 | 42 to 46 °C
23 | Nc1ccc(N2CCN(Cc3ccccc3)CC2)nc1CS(=O)(=O)c1ccccc1 | 175 to 176 °C
24 | COc1cc(C#N)c2nc(-c3ccc(OC)c(F)c3)cc(O)c2c1 | 218 to 220 °C
25 | CN(C)C(=O)Nc1ccc(-c2c[nH]c(=O)cn2)cc1 | 256 to 260 °C

Row | Structure (SMILES) | melting point
26 | CCC(=O)Oc1c(OC)c(OC)c(OC(C)=O)c2ccc(Cl)cc12 | 86 to 87 °C
27 | CS(=O)(=O)n1ccc2c1CC(c1ccccc1)CC2=O (stereo not given) | 172 to 173 °C
28 | FC(F)(F)c1ccc2c(c1)ncn2-c1cccc(I)c1 | 86 to 87 °C
29 | Cc1noc(NS(=O)(=O)c2cc(Br)c(Cl)s2)c1Br | 143 to 145 °C
30 | COC(=O)c1cccnc1CN1C(=O)C(NC(=O)Nc2cccc(C)c2)N=C(c2ccccc2F)c2ccccc21 (racemic) | 171 to 175 °C
31 | COc1ccc(-c2ccc(N3CCCN(c4ccc(-c5ccc(OC)c(OC)c5)cn4)CC3)nc2)cc1OC | 190 to 192 °C
32 | Clc1cccc(C(c2ccnc3ccccc23)n2ccnc2)c1 (stereo not given) | 184 °C
33 | CCOC(=O)NC(=O)C(C#N)=CNNc1ccc(OC(F)F)cc1 | 144 to 146 °C
34 | CC(C)n1c(=O)c2cc(C(=O)O)cn2c2ccccc21 | 238 to 240 °C
35 | COC(=O)C12Cc3cc(Cl)ccc3C1=NNCO2 (stereo not given) | 124 to 127 °C
36 | CCOCn1c(-c2ccc(Cl)cc2)c(C#N)c(Sc2ccc(Cl)cc2)c1C(F)(F)F | 98 to 100 °C
37 | COC(=O)c1[nH]c2c(C)ccc(Cl)c2c1C | 122 to 123 °C
38 | COc1ccc(NC(=O)c2ccc(F)c(F)c2)cc1NS(=O)(=O)c1cccc(C#N)c1 | 212 to 214 °C
39 | CSc1ccc(-c2nn(Cc3ccccc3)c(=O)cc2-c2ccccc2)cc1 | 157 to 158 °C
40 | O=C(Nc1ccc2ncnc(Nc3cc(Cl)c(Cl)cc3F)c2c1)C(Cl)Cl | > 300 °C
41 | O=C(CCCc1ccccc1)N[C@H](Cc1ccc(C(F)(F)F)cc1)[C@@H](O)c1ccc(F)cc1 (racemic) | 150 to 151 °C
42 | OC1(c2ccccc2)C(c2ccccc2)SC2=NCCCCN21 (stereo not given) | 100 to 103 °C
43 | COC(=O)C#CC(=O)c1ccc(OC)c(OC)c1OC | 74 °C
44 | COc1cc(CC(=O)Nc2cnn(Cc3c(C)noc3C)c2)cc(OC)c1O | 187 to 188 °C
45 | O=C(C=Cc1ccc(Cl)c([N+](=O)[O-])c1)N1CCc2c([nH]c3ccccc23)C1c1ccc2c(c1)OCO2 (stereo not given) | 240 °C
46 | Cc1ccc(-c2nc(COc3ccc(CCCCn4ccnc4)cc3)co2)s1 | 82 to 83 °C
47 | Cc1c(OCC(F)(F)F)ccnc1CSc1nc2ccccc2n1NCC(C)C | 82 to 83 °C
48 | c1ccc(Nn2ccc3ccccc32)nc1 | 109 to 110 °C
49 | COc1ccc(-n2cccc2)c(N)c1 | 42 to 43 °C
50 | Cc1oc(-c2ccccc2)nc1COc1cccc(COc2cncc(CO)c2)c1 | 145 to 146 °C

Reference: a melting point compilation (Tetko et al.; mined from patent text by program, amines drawn as free bases though some values may be those of a salt)
